Assay [1] deals with passaged G. vaginalis biofilm. In words: MBEC on biofilms of passaged strains. The class given is cell-based, Gardnerella vaginalis. The method, then: (§1) Gardnerella spp. (see figures for strain specification) was resuspended in brain heart infusion broth supplemented with 2% (w/v) gelatin, 0.5% yeast extract (w/v), 0.1% starch (w/v) and 0.25% glucose (w/v) (sBHIG). Passaged strains were resuspended in unbuffered NYCB supplemented with 1% glucose (w/v) (sNYCB). The OD600 was set to 0.1 (approx. 10^7-10^8 CFU/mL) and the cell suspension was diluted 1:10 in growth medium as input for biofilm formation. A total of 200 μL of the respective bacterial suspensions was added to 96-well flat bottom plates (tissue-culture treated, Sigma-Aldrich). The biofilms were grown under anaerobic conditions at 37° C. for 40 to 72 hours, depending on the isolate. Subsequently, the supernatant was removed, and the biofilm was treated with antimicrobials dissolved in sBHIG (at pH 5 for treatment with PM-477 (H2B10), and unbuffered for treatment with antibiotics) in 100 μL and incubated anaerobically at 37° C. for another 24 hours. After the treatment, the biofilms were washed twice with 200 μL 1x PBS and dissolved by vigorous pipetting (40x up and down). Serial dilutions of the dissolved cells were spotted on chocolate agar plates. The plates were incubated anaerobically for two to three days and the minimum biofilm eradication concentration (MBEC) of the endolysin or the antibiotics in use were calculated.
All MICs determined after 48 h of incubation.

The test system of assay [2] is Gardnerella strains from vaginal swabs of BV patients. In words: MIC and MBC99.5 on 18 in-house BV patient isolates. The assay is classed as cell-based, Gardnerella spp. The method, then: The minimum inhibitory concentration (MIC), which is a standard measure of the activity of antimicrobials, was determined according to the Clinical and Laboratory Standards Institute protocol (2018) Methods for Antimicrobial Susceptibility Testing of Anaerobic Bacteria (Carpenter et al., 2018). […] Controls for growth in the absence of antimicrobials were also included. OD600 was recorded by a microplate reader (Tecan, Grodig, Austria) after incubation at 37° C. for 48 h or, for some fast-growing strains, after incubation for 24 h. Absence of growth was defined as OD600≤0.14. […] MIC readout and MBC99.5 spotting were performed after 72 h incubation for H2B10B11.

Assay [3] concerns Six Gardnerella strains. As to the kind of experiment: microbe, parasite or virus in culture. The class given is cell-based, Gardnerella spp. The method, then:
(§2) The final volume of the reaction was 100 µL and the reactions were performed in triplicate in 384-well plates. The OD600 was measured using a microplate reader (Tecan, Grodig, Austria) to generate timepoint 0 h baseline values. The reactions were incubated anaerobically for 24 h, then the OD600 was measured again, and the MIC was measured as the lowest concentration with OD600<0.14. […] This process was repeated for a maximum of 25 rounds. In each round, the input CFU/mL was determined by quantitative plating.
(§3) In parallel, one representative of G. vaginalis (ATCC 14018^T) was passaged 25 times with PM-477 (H2B10).

For assay [4] the following is noted: 0.75% MDZ vaginal gel over 16 weeks, cited from earlier work.
Assay [5] has as its system Gardnerella strains grown as biofilm. In words: MBEC on pre-formed biofilms, summary over ancestor strains. The assay is classed as cell-based, Gardnerella spp. The note with it: 40-72 h old pre-formed biofilms. The method, then: as §1, with “calculated. […]” for “calculated.”
In assay [6] the test system is G. vaginalis (ATCC 14018T). In words: Serial passaging for resistance formation with PM-477. The assay is classed as cell-based, Gardnerella vaginalis. The settings on record: G. vaginalis (ATCC 14018T) passaged 25 times with PM-477 (H2B10). The method, then: as §2, §3
[7] abbreviates: G. vaginalis (ATCC 14018T) passaged with MDZ.
Setting [8] is: G. vaginalis (UGent 09.07) passaged 8 times with MDZ-OH.
The mark [9] stands for this setting: G. vaginalis (UGent BV50) passaged with MDZ-OH.

In brackets after ≈: the same amount, converted by molar mass. Where two headings read alike, the source gives them in different places.

For `Cc1ncc([N+](=O)[O-])n1CCO` [MDZ, metronidazole], the MBEC passaged in assay [1] (setting [7]), in assay [1] (setting [8]) and in assay [1] (setting [9]) was greater than 2048 µg/mL in each case. Also, the MIC is 64 µg/mL (≈ 374 µM) in assay [2] (Gardnerella, 72 h, 18 in-house BV patient isolates, read-out: median MIC) and greater than 512 µg/mL in assay [3] (Gardnerella, read-out: MIC after 9 rounds of passaging, 4 out of 6 strains, maximal concentration in use). Besides, the MBC in assay [2] (Gardnerella, 18 in-house BV patient isolates, read-out: median MBC99.5) stood at 1540 µg/mL (≈ 8970 µM). The “number of resistant isolates (MIC>32 μg/mL)” value in assay [2] (panel of 18 isolates from vaginal swabs of BV patients) is given as 10. In addition, the “pre-passaging MIC range” value in assay [3] (six Gardnerella strains before passaging) is 8 to 256 µg/mL. Further, the figures for the “probability of lasting cure” value in assay [4] (12 weeks after end of therapy (week 28)) and in assay [4] (after 16 weeks) were 34% and 70%, respectively.

B1: PM-477: genetically engineered recombinant Gardnerella-specific endolysin, amino acid sequence SEQ ID NO: 1, His-tag cleaved off (protein)
chain: SKRGIDVSEWQGDIDFNAVKASGVEFVIIRAGYGIGCKDKWFEQNYRKAKTCGLDVGAYWYSYANSGFEAAEEAQSCVNMLSGKSFEYPVYFDLEEKSQLNRGRAFCDSLITGFCNKLESCGYYAGFYTSLSTANNLVSAHVRNRYALWIAQWNTHCSYQGSYGLWQYSSSGSVPGVAGRVDMDYAYVDYPSIIKNVGLNGYKNGGSYTAPQISSIDEVAREVINGDWGNGNERKQRLTSAGYDYASVQNKVNELLGVKAYRKSVDELAREVIRGTWGNGSTRKQRLTQAGYDYNAVQKRVNELL
modifications: His-tag cleaved off; H2B10
B1: the MBEC passaged in assay [1] (setting [7]) was 2 to 8 µg/mL; in assay [1] (setting [8]), 2 to 4 µg/mL; in assay [1] (setting [9]), 1 to 8 µg/mL. In addition, the “MBEC, range over strains” value in assay [5] is less than 2 to 32 µg/mL. Besides, in assay [6], the “MIC after 25 rounds of passaging” value was found to be 8 µg/mL.

Values taken from patent publication US20250144186A1, “NOVEL THERAPEUTIC USES OF GARDNERELLA ENDOLYSINS” (priority 2022, published 2025).
